# According to ChEMBL document CHEMBL1140238, “Synthesis of selective SRPK-1 inhibitors: novel tricyclic quinoxaline derivatives” (Bioorg Med Chem Lett, 2005):
# Columns and labels:
# [1] = Partition coefficient (logP); format: physicochemical; details: octanol/water
# [2] = In vitro percent inhibition of Cyclin-dependent kinase 2-cyclin A at 10 uM concentration of compound dissolved in 100% DMSO using 5''-[gamma-33P]-triphosphate
# [3] = molecular target: RAC-alpha serine/threonine-protein kinase (Homo sapiens) (UniProt P31749); assay: In vitro percent inhibition of Protein kinase B, alpha at 10 uM concentration of compound dissolved in 100% DMSO using 5''-[gamma-33P]-triphosphate
# [4] = molecular target: Mast/stem cell growth factor receptor Kit (Homo sapiens) (UniProt P10721); assay: In vitro percent inhibition of v-kit Hardy-Zuckerman 4 feline sarcoma viral oncogene homolog at 10 uM concentration of compound dissolved in 100% DMSO using 5''-[gamma-33P]-triphosphate
# [5] = molecular target: Glycogen synthase kinase-3 beta (Homo sapiens) (UniProt P49841); assay: In vitro percent inhibition of Glycogen synthase kinase 3 beta at 10 uM concentration of compound dissolved in 100% DMSO using 5''-[gamma-33P]-triphosphate
# Sequence of Glycogen synthase kinase-3 beta (Homo sapiens) (P49841 whole entry, looked up): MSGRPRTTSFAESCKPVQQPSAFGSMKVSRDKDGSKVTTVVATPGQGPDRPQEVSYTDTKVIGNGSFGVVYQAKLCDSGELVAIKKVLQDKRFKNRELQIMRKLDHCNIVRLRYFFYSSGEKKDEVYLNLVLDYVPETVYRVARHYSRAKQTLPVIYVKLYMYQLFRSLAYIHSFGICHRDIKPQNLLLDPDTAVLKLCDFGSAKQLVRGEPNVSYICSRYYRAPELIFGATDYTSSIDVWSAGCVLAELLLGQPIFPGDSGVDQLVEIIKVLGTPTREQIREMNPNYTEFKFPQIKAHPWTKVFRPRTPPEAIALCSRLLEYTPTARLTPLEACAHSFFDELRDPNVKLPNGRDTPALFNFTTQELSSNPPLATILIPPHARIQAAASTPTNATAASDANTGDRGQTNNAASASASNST
# [6] = molecular target: Rho-associated protein kinase 2 (Homo sapiens) (UniProt O75116); assay: In vitro percent inhibition of Protein kinase ROCK2 at 10 uM concentration of compound dissolved in 100% DMSO using 5''-[gamma-33P]-triphosphate
# Sequence of Rho-associated protein kinase 2 (Homo sapiens) (O75116 whole entry, looked up): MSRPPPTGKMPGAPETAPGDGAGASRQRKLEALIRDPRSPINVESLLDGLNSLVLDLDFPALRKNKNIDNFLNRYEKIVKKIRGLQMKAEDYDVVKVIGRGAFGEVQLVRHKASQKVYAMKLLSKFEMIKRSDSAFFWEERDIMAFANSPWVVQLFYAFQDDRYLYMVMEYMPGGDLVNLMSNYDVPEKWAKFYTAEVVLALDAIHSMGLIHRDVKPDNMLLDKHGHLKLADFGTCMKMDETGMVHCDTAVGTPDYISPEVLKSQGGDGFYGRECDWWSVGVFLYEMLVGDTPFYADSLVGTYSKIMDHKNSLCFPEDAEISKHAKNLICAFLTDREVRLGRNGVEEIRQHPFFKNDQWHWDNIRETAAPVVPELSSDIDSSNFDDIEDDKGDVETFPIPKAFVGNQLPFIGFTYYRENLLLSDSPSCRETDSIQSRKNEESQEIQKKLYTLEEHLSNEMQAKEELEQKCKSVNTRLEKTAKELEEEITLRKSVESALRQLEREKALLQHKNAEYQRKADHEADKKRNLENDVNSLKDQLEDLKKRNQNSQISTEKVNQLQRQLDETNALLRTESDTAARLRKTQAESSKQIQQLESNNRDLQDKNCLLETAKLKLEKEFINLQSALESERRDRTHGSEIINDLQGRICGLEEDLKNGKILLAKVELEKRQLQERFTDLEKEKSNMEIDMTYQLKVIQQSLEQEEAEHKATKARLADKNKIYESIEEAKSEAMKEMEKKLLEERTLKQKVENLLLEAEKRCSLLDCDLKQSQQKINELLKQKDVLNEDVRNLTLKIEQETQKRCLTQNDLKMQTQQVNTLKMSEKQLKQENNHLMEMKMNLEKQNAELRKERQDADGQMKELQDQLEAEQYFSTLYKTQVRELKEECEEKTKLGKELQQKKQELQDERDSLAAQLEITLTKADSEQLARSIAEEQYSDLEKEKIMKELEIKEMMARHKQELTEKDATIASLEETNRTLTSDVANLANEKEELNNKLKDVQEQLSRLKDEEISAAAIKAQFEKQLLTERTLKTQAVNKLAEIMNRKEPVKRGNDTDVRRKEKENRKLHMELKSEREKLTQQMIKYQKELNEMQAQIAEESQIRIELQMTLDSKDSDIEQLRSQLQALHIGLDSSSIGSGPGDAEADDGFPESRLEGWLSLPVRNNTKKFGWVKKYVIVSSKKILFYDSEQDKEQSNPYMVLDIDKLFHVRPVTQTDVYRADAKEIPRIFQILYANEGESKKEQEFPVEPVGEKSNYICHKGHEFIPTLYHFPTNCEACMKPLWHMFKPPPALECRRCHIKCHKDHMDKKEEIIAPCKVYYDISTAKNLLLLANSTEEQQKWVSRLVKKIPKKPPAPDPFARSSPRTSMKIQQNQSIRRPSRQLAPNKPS
# [7] = In vitro percent inhibition of Ribosomal S6 kinase 1 at 10 uM concentration of compound dissolved in 100% DMSO using 5''-[gamma-33P]-triphosphate
# [8] = molecular target: Epidermal growth factor receptor (Homo sapiens) (UniProt P00533); details: 10 uM
# Sequence of Epidermal growth factor receptor (Homo sapiens) (P00533 whole entry, canonical isoform): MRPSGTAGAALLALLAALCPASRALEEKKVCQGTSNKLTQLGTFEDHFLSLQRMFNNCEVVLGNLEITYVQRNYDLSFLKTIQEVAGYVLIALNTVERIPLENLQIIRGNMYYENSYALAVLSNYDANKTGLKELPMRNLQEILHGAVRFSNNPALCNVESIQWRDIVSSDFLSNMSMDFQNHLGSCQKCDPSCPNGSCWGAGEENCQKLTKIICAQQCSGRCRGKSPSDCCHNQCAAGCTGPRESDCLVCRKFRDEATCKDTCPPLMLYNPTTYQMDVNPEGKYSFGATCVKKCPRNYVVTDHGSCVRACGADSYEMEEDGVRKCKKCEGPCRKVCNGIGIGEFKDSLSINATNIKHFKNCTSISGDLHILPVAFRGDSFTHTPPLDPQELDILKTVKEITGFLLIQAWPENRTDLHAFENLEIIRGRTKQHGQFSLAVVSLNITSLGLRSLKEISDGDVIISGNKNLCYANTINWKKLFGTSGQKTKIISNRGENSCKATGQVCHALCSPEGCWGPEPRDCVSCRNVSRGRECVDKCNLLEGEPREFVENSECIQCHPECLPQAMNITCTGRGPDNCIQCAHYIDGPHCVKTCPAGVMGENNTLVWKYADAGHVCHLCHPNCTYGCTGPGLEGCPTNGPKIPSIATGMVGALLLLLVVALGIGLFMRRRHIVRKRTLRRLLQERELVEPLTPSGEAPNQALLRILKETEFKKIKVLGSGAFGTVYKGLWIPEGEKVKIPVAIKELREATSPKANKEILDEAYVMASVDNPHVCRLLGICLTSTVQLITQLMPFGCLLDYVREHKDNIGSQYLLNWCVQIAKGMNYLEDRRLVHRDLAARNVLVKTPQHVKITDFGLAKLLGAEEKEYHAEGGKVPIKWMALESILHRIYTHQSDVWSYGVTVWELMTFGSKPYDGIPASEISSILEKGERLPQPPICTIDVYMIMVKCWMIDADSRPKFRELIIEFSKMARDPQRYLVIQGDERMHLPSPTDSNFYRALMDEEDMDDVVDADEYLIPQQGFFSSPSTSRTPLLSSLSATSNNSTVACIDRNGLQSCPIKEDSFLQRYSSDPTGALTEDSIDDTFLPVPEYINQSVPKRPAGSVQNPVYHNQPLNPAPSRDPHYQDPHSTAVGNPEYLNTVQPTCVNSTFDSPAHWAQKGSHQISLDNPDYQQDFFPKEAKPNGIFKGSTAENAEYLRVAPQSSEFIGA
# [9] = molecular target: Casein kinase I isoform alpha (Homo sapiens) (UniProt P48729); assay: In vitro percent inhibition of Casein kinase 1 alpha at 10 uM concentration of compound dissolved in 100% DMSO using 5''-[gamma-33P]-triphosphate
# Sequence of Casein kinase I isoform alpha (Homo sapiens) (P48729 2-337 limits assumed): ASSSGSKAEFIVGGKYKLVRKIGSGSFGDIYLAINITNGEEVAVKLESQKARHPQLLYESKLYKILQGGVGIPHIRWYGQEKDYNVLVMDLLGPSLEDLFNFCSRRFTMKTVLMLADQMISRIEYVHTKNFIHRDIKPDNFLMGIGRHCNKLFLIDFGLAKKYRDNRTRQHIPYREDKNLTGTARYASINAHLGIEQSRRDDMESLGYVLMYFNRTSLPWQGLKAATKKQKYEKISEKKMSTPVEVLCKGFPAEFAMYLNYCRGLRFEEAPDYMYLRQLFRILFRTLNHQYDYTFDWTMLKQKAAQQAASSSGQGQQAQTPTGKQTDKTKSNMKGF
# [10] = molecular target: Ribosomal protein S6 kinase (P70S6K) (Homo sapiens) (UniProt Q9UBS0+P23443); assay: In vitro percent inhibition of Ribosomal protein S6 kinase at 10 uM concentration of compound dissolved in 100% DMSO using 5''-[gamma-33P]-triphosphate; format: protein-complex assay
# [11] = molecular target: RAF proto-oncogene serine/threonine-protein kinase (Homo sapiens) (UniProt P04049); assay: In vitro percent inhibition of RAF proto-oncogene serine/threonine-protein kinase at 10 uM concentration of compound dissolved in 100% DMSO using 5''-[gamma-33P]-triphosphate
# [12] = molecular target: Mitogen-activated protein kinase 3 (Homo sapiens) (UniProt P27361); assay: In vitro percent inhibition of Mitogen-activated protein kinase 3 at 10 uM concentration of compound dissolved in 100% DMSO using 5''-[gamma-33P]-triphosphate
# [13] = molecular target: Proto-oncogene tyrosine-protein kinase Src (Homo sapiens) (UniProt P12931); assay: In vitro percent inhibition of c-Src tyrosine kinase at 10 uM concentration of compound dissolved in 100% DMSO using 5''-[gamma-33P]-triphosphate
# [14] = molecular target: Hepatocyte growth factor receptor (Homo sapiens) (UniProt P08581); assay: In vitro percent inhibition of Met proto-oncogene tyrosine kinase at 10 uM concentration of compound dissolved in 100% DMSO using 5''-[gamma-33P]-triphosphate
# [15] = molecular target: Platelet-derived growth factor receptor beta (Homo sapiens) (UniProt P09619); assay: In vitro percent inhibition of Platelet-derived growth factor receptor, beta polypeptide at 10 uM concentration of compound dissolved in 100% DMSO using 5''-[gamma-33P]-triphosphate
# Sequence of Platelet-derived growth factor receptor beta (Homo sapiens) (P09619 whole entry): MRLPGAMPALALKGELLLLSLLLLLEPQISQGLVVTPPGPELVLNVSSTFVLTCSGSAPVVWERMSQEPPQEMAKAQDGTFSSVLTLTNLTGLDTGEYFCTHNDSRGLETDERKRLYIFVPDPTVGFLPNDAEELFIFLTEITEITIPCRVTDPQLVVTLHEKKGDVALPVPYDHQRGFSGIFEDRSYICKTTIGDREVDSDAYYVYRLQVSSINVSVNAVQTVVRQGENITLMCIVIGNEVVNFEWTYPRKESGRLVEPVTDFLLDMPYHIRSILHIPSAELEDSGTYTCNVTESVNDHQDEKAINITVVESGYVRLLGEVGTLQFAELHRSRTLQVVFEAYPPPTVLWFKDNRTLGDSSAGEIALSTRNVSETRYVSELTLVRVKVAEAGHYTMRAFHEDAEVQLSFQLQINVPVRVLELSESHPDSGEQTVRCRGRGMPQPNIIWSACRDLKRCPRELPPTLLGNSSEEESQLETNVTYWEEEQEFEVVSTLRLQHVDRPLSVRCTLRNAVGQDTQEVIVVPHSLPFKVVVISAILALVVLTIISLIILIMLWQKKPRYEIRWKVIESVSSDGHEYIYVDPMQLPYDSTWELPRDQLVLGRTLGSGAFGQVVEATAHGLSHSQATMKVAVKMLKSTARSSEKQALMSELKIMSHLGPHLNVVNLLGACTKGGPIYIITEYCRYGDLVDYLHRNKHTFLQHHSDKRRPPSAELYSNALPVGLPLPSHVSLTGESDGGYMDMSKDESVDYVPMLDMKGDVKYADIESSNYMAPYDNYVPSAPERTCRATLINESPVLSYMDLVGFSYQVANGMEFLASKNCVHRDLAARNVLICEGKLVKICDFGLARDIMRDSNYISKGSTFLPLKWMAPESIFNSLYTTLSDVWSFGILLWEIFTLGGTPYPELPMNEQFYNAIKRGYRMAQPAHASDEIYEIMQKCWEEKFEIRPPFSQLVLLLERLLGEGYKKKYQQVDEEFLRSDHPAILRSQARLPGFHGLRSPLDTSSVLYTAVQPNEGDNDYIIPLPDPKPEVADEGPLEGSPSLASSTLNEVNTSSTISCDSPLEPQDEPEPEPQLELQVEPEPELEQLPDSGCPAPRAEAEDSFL
# [16] = molecular target: T1, Inhibitor of nuclear factor kappa-B kinase subunit beta (Homo sapiens) (UniProt O14920); assay: In vitro percent inhibition of I-kappa-B-kinase beta at 10 uM concentration of compound dissolved in 100% DMSO using 5''-[gamma-33P]-triphosphate
# T1 sequence (whole entry): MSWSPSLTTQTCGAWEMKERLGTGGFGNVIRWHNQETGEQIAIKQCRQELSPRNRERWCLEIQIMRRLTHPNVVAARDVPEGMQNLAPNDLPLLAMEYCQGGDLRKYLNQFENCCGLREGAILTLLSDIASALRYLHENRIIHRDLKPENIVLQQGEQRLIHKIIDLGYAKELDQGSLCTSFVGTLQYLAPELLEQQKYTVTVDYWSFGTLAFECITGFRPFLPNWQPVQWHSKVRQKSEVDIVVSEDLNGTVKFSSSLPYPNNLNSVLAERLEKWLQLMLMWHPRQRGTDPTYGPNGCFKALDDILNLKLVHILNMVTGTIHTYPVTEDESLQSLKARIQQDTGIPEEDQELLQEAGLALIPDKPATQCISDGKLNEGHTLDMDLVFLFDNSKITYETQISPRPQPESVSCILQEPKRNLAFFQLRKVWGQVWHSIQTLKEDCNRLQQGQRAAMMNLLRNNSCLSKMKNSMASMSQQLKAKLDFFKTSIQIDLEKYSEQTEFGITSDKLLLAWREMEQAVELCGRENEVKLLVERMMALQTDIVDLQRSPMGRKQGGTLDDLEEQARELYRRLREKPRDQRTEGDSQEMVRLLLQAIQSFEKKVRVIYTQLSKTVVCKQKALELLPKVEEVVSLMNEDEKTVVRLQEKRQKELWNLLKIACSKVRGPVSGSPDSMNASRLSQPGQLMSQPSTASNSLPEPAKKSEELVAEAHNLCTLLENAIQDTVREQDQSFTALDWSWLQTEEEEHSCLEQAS
# [17] = molecular target: T2, Tyrosine-protein kinase transforming protein Abl (Abelson murine leukemia virus) (UniProt P00521); assay: In vitro percent inhibition of v-Abl tyrosine kinase at 10 uM concentration of compound dissolved in 100% DMSO using 5''-[gamma-33P]-triphosphate
# T2 sequence (whole entry): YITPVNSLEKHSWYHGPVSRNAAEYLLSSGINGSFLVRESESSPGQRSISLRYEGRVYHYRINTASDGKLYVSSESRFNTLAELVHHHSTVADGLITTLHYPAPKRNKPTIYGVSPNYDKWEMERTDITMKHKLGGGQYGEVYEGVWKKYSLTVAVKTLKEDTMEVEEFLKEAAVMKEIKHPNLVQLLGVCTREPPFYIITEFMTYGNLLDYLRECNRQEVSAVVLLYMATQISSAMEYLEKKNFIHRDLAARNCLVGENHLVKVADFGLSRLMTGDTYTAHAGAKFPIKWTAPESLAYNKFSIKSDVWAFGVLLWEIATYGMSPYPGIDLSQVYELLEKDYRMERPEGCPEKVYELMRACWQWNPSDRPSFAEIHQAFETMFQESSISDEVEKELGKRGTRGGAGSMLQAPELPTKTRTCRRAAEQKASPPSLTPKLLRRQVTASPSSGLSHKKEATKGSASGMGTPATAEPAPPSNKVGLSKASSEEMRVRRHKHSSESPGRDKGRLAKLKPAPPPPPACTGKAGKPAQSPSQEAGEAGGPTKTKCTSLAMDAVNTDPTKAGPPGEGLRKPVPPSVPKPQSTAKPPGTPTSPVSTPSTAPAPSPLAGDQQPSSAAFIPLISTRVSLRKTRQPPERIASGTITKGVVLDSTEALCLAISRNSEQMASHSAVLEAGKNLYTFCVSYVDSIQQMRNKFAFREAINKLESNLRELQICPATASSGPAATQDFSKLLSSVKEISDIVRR
# [18] = molecular target: Tyrosine-protein kinase Lck (Homo sapiens) (UniProt P06239); assay: In vitro percent inhibition of p56 Lck tyrosine kinase at 10 uM concentration of compound dissolved in 100% DMSO using 5''-[gamma-33P]-triphosphate
# Sequence of Tyrosine-protein kinase Lck (Homo sapiens) (P06239 2-509 limits assumed): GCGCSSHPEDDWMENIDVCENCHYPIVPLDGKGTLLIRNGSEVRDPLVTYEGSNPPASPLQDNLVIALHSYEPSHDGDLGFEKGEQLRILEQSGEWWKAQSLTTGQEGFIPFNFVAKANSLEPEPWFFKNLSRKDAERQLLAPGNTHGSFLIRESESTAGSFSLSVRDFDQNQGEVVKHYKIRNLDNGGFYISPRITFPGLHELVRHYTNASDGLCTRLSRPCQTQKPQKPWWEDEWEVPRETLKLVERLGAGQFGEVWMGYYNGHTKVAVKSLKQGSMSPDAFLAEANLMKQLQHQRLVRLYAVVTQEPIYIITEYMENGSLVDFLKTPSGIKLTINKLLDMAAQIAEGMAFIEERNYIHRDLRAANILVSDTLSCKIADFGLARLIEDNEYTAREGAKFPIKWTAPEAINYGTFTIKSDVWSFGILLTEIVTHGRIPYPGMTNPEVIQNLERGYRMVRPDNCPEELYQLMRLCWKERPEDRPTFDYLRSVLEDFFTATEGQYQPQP
# [19] = molecular target: Insulin receptor (Homo sapiens) (UniProt P06213); assay: In vitro percent inhibition of Insulin receptor at 10 uM concentration of compound dissolved in 100% DMSO using 5''-[gamma-33P]-triphosphate
# [20] = molecular target: Mitogen-activated protein kinase 8 (Homo sapiens) (UniProt P45983); assay: In vitro percent inhibition of c-Jun N-terminal kinase 1-alpha 1 at 10 uM concentration of compound dissolved in 100% DMSO using 5''-[gamma-33P]-triphosphate
SMILES,logP [1],inhibition [2],inhibition [3],inhibition [4],inhibition [5],inhibition [6],inhibition [7],inhibition [8],inhibition [9],inhibition [10],inhibition [11],inhibition [12],inhibition [13],inhibition [14],inhibition [15],inhibition [16],inhibition [17],inhibition [18],inhibition [19],inhibition [20]
COC(=O)Cc1ccc(-c2nc3cc4ccccc4cc3nc2-c2ccc(CC(=O)OC)s2)s1,4.95,–,–,–,–,–,–,–,–,–,–,–,–,–,–,–,–,–,–,–
O=C(O)C1COc2cc3nc(-c4cccs4)c(-c4cccs4)nc3cc2O1 (configuration not stated),4.7,10%,4%,4%,33%,-1%,14%,39%,15%,-1%,12%,39%,19%,-2%,5%,14%,-6%,-2%,–,–
COc1cc2nc3nc(-c4cccs4)c(-c4cccs4)nc3nc2cc1OC,4.79,27%,-4%,-4%,4%,-1%,48%,20%,2%,-2%,8%,20%,9%,12%,5%,10%,-1%,-7%,-7%,–
O=C(O)Cc1csc(-c2nc3cc4ccccc4cc3nc2-c2cc(CC(=O)O)cs2)c1,4.11,-5%,17%,17%,22%,18%,27%,54%,18%,10%,40%,54%,29%,21%,22%,37%,-7%,8%,–,–
CCC(=O)c1ccccc1 [PROPIOPHENONE],2.2,–,–,–,–,–,–,–,–,–,–,–,–,–,–,–,–,–,–,–
COc1cc2nc(-c3cccs3)c(-c3cccs3)nc2cc1OC,4,-5%,-6%,-6%,–,2%,15%,10%,-1%,-9%,11%,10%,10%,-3%,7%,10%,-2%,9%,-7%,–
CCCC(=O)c1ccccc1 [BUTYROPHENONE],2.73,–,–,–,–,–,–,–,–,–,–,–,–,–,–,–,–,–,–,–
COC(=O)Cc1csc(-c2nc3cc4ccccc4cc3nc2-c2cc(CC(=O)OC)cs2)c1,5,-4%,1%,1%,2%,4%,13%,11%,3%,-5%,17%,11%,8%,-2%,9%,14%,-10%,4%,–,-10%
COc1cc2c(c(OC)c1OC)-c1ccc(OC)c(=O)cc1[C@@H](NC(C)=O)CC2 [COLCHICINE],0.92,–,–,–,–,–,–,–,–,–,–,–,–,–,–,–,–,–,–,–
CCCCC(=O)c1ccccc1 [VALEROPHENONE],3.26,–,–,–,–,–,–,–,–,–,–,–,–,–,–,–,–,–,–,–
c1ccc(-c2nnn[nH]2)cc1,1.42,–,–,–,–,–,–,–,–,–,–,–,–,–,–,–,–,–,–,–
O=C(O)c1ccc(-c2nc3cc4ccccc4cc3nc2-c2ccc(C(=O)O)s2)s1,5.03,3%,12%,12%,51%,19%,31%,49%,7%,14%,16%,49%,20%,-4%,23%,29%,–,–,–,–
O=C(O)CCCc1ccc(-c2nc3cc4ccccc4cc3nc2-c2ccc(CCCC(=O)O)s2)s1,4.77,7%,–,33%,13%,0%,20%,32%,24%,18%,12%,6%,35%,7%,37%,43%,–,9%,–,–
COC(=O)CCc1ccc(-c2nc3cc4ccccc4cc3nc2-c2ccc(CCC(=O)OC)s2)s1,5,12%,14%,12%,7%,5%,31%,32%,14%,11%,18%,13%,19%,39%,13%,31%,-8%,5%,–,-10%
Cn1c(=O)c2[nH]cnc2n(C)c1=O [THEOPHYLLINE],-0.05,–,–,–,–,–,–,–,–,–,–,–,–,–,–,–,–,–,–,–
c1ccc2[nH]cnc2c1 [BENZIMIDAZOLE],1.55,–,–,–,–,–,–,–,–,–,–,–,–,–,–,–,–,–,–,–
Cn1c(=O)c2[nH]c(-c3ccccc3)nc2n(C)c1=O [8-PHENYL THEOPHYLLINE],2.05,–,–,–,–,–,–,–,–,–,–,–,–,–,–,–,–,–,–,–
